Marks after values point to notes of the source that are not given here.
How the values were obtained:
[1] = test system: AM25-6; experiment: Antibiotic sensitivity of AM25-6 by the drug sensitive paper method; type: cell-based, Anaerofustis stercorihominis; conditions: antibiotic susceptibility papers on AM25-6 plates, 37° C., 48 hours
Description: The sensitivity of AM25-6 to 20 common antibiotics was tested by the drug sensitive paper method. 100 μl of AM25-6 bacterial solution cultured to the logarithmic phase was spread plated. Antibiotic susceptibility papers (purchased from Hangzhou Microbial Reagent Co. LTD) were affixed on the medium surface of plates, cultured at 37° C. for 48 hours, after which the size of inhibition zone was measured.

[2] = test system: T2D mice model (C57bL/6 mice); experiment: T2D animal model (STZ plus high-fat feed), body weight; type: in vivo; conditions: gavage
Description: (§1) The T2D animal model is constructed by using C57bL/6 mice (purchased from Guangdong Medical Experimental Animal Center) at 8 weeks old and 20±2 g of body weight. The mice were housed in a specific pathogen free (SPF) environment and adaptively fed for 1 week, followed by grouping and modeling. The T2D animal model is induced by injection of streptozotocin (STZ) along with feeding high-fat feed, and the mice having fasting blood glucose (FBG) reaching to 10 mM/L can be used as a T2D mice model. Fifty mice selected for experiments are randomly divided into 5 groups.
(§2) Bacterial agent group 1: the T2D mice model was administered with the AM25-6 bacterial solution (1×10^8 cfu/ml) by gavage;
(§3) Bacterial agent group 2: the T2D mice model was administered with the DSM 17244 bacterial solution (1×10^8 cfu/ml) by gavage;
(§4) Bacterial agent group 3: the T2D mice model was administered with the DSM 28733 bacterial solution (1×10^8 cfu/ml) by gavage;
(§5) Metformin treatment group: the T2D mice model was treated with the positive drug metformin.
(§6) The experiment was carried out based on the different groups. After the construction of T2D mice model (i.e., FBG>10), the treatment was started and lasted for 2 months. The food intake amount and body weight of mice were recorded daily. Blood of mice was collected from the tail vein every week for detection of fasting blood glucose. The oral glucose tolerance test (OGTT) of mice was measured at week 4 of treatment and at the end of the experiment.

[3] = test system: T2D mice model (C57bL/6 mice); experiment: T2D animal model, fasting blood glucose; type: in vivo
Description: as §1, §2, §3, §4, §5, §6

[4] = test system: T2D mice model (C57bL/6 mice); experiment: T2D animal model, oral glucose tolerance test (OGTT); type: in vivo
Description: as §1, §6
The results of oral glucose tolerance test (OGTT) for mice shown in Table 8 indicate that the blood glucose of mice reaches the highest level (i.e., 17.8-23.1 mmol/L) at 30 minutes upon administration of glucose by gavage. […] From the perspective of overall glucose tolerance process, it can be seen that Anaerofustis stercorihominis can effectively ameliorate glucose intolerance in diabetic mice.

| Compound | Diameter of inhibition zone [1] | further results |
| --- | --- | --- |
| NCC[C@H](O)C(=O)N[C@@H]1C[C@H](N)[C@@H](O[C@H]2O[C@H](CN)[C@@H](O)[C@H](O)[C@H]2O)[C@H](O)[C@H]1O[C@H]1O[C@H](CO)[C@@H](O)[C@H](N)[C@H]1O [Amikacin] | 1.5 cm |  |
| CC1(C)S[C@@H]2[C@H](NC(=O)[C@H](N)c3ccccc3)C(=O)N2[C@H]1C(=O)O [Ampicillin] | >4.0 cm |  |
| CC1(C)S[C@@H]2[C@H](NC(=O)C(C(=O)O)c3ccccc3)C(=O)N2[C@H]1C(=O)O (some centres unmarked) [Carbenicillin] | >4.0 cm |  |
| CC1=C(C(=O)O)N2C(=O)[C@@H](NC(=O)[C@H](N)c3ccccc3)[C@H]2SC1 [Cefalexin] | 2.0 cm |  |
| Cc1nnc(SCC2=C(C(=O)O)N3C(=O)[C@@H](NC(=O)Cn4cnnn4)[C@H]3SC2)s1 [Cefazolin] | 2.6 cm |  |
| CCN1CCN(C(=O)N[C@@H](C(=O)N[C@@H]2C(=O)N3C(C(=O)O)=C(CSc4nnnn4C)CS[C@H]23)c2ccc(O)cc2)C(=O)C1=O [Cefoperazone] | >4.0 cm |  |
| CC1=C(C(=O)O)N2C(=O)[C@@H](NC(=O)[C@H](N)C3=CCC=CC3)[C@H]2SC1 [Cefradine] | 2.0 cm |  |
| CO/N=C(\C(=O)N[C@@H]1C(=O)N2C(C(=O)O)=C(CSc3nc(=O)c(=O)[nH]n3C)CS[C@H]12)c1csc(N)n1 [Ceftriaxone Sodium] | >4.0 cm |  |
| CO/N=C(\C(=O)N[C@@H]1C(=O)N2C(C(=O)O)=C(COC(N)=O)CS[C@H]12)c1ccco1 [Cefuroxime] | 3.0 cm |  |
| C[C@H]1c2cccc(O)c2C(=O)C2=C(O)[C@]3(O)C(=O)C(C(N)=O)=C(O)[C@@H](N(C)C)[C@@H]3[C@@H](O)[C@@H]21 [Doxycycline] | 2.0 cm |  |
| CC[C@H]1OC(=O)[C@H](C)[C@@H](O[C@H]2C[C@@](C)(OC)[C@@H](O)[C@H](C)O2)[C@H](C)[C@@H](O[C@@H]2O[C@H](C)C[C@H](N(C)C)[C@H]2O)[C@](C)(O)C[C@@H](C)C(=O)[C@H](C)[C@@H](O)[C@]1(C)O [Erythromycin] | 2.0 cm |  |
| CC(C)(O/N=C(\C(=O)N[C@@H]1C(=O)N2C(C(=O)[O-])=C(C[n+]3ccccc3)CS[C@H]12)c1csc(N)n1)C(=O)O [Fortum (Ceftazidime), Ceftazidime] | >4.0 cm |  |
| NC[C@H]1O[C@H](O[C@H]2[C@H](O)[C@@H](O[C@H]3O[C@H](CO)[C@@H](O)[C@H](N)[C@H]3O)[C@H](N)C[C@@H]2N)[C@H](O)[C@@H](O)[C@@H]1O [Kanamycin] | 1.8 cm |  |
| CN(C)C(=N)N=C(N)N [Metformin, metformin, reference compound] |  | Body weight ([2]; Week 1): 20.33 g; Body weight ([2]; Week 3): 22.36 g; Body weight ([2]; Week 5): 24.63 g; Body weight ([2]; Week 7): 25.86 g; Body weight ([2]; Week 9, *P<0.05 relative to model group): 26.53* g; Fasting blood glucose, Week 1 ([3]; Week 1): 16.8 mmol/L; Fasting blood glucose, Week 3 ([3]; Week 3): 16.2 mmol/L; Fasting blood glucose, Week 5 ([3]; Week 5): 13.9 mmol/L; Fasting blood glucose, Week 7 ([3]; Week 7): 11.5* mmol/L; Fasting blood glucose, Week 9 ([3]; Week 9): 10.1** mmol/L; Blood glucose in OGTT, 0 minute ([4]; 0 minute after glucose by gavage): 9.3 mmol/L; Blood glucose in OGTT, 30 minutes ([4]; 30 minutes after glucose by gavage): 18.6 mmol/L; Blood glucose in OGTT, 60 minutes ([4]; 60 minutes after glucose by gavage): 16.4 mmol/L; Blood glucose in OGTT, 90 minutes ([4]; 90 minutes after glucose by gavage): 11.7* mmol/L; Blood glucose in OGTT, 120 minutes ([4]; 120 minutes after glucose by gavage): 10.3 mmol/L |
| CN(C)c1ccc(O)c2c1C[C@H]1C[C@H]3[C@H](N(C)C)C(O)=C(C(N)=O)C(=O)[C@@]3(O)C(O)=C1C2=O [Minocin (Minocycline), Minocycline] | 2.6 cm |  |
| Cc1onc(-c2ccccc2)c1C(=O)N[C@@H]1C(=O)N2[C@@H]1SC(C)(C)[C@@H]2C(=O)O [Oxacillin] | 1.0 cm |  |
| CCN1CCN(C(=O)N[C@@H](C(=O)N[C@@H]2C(=O)N3[C@@H]2SC(C)(C)[C@@H]3C(=O)O)c2ccccc2)C(=O)C1=O [Piperacillin] | 3.0 cm |  |
| CN(C)[C@@H]1C(O)=C(C(N)=O)C(=O)[C@@]2(O)C(O)=C3C(=O)c4c(O)cccc4[C@@](C)(O)[C@H]3C[C@@H]12 [Tetracycline] | 0.9 cm |  |
| Gentamicin | 2.0 cm |  |
| Neomycin | 1.0 cm |  |
| Penicillin | 3.0 cm |  |

— patent US11903981B2, “Use of Anaerofustis stercorihominis in preventing and/or treating metabolic diseases” (priority 2018, dated 2024)
